The target in assay [1] is T1, recombinant human Lp-PLA2 (Homo sapiens, UniProt Q13093).
T1 sequence (Q13093 22-441): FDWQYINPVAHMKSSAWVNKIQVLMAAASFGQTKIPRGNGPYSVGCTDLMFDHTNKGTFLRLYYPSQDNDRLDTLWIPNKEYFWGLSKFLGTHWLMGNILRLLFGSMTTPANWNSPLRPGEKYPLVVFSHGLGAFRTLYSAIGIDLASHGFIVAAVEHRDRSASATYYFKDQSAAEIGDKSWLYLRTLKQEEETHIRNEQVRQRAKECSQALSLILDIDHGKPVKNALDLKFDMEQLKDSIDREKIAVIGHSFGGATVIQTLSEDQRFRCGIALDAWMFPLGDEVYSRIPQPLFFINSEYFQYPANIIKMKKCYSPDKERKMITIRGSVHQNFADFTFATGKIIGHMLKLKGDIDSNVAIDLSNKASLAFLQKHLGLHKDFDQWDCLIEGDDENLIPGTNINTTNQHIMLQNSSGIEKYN
The assay is described as follows: Recombinant human Lp-PLA2 assay (rhLp-PLA2, PED6 assay). Format: biochemical. The following applies: upper limit for pIC50 in this assay is 9.3. From the text:
(1) Recombinant Human Lp-PLA2 Assay (rhLp-PLA2) (Also Referred to as “PED6” Assay)
N-((6-(2,4-dinitrophenyl)amino)-hexanoyl)-2-(4,4-difluoro-5,7-dimethyl-4-bora-3a,4a-diaza-s-indacene-3-pentanoyl)-1-hexadecanoyl-sn-glycero-3-phosphoethanolamine, triethylammonium salt (PED6) is a commercially available fluorescently-labelled phospholipid, which is commercially available from Molecular Probes. There is a quenching para-nitro phenyl (PNP) group in the sn3 position and a Bodipy fluorescein (FL) group in the sn2 position. Upon cleavage with Lp-PLA2, the Bodipy F1 group is liberated and then may result in an increase in fluorescence. Inhibitors of Lp-PLA2 therefore prevent this cleavage and no fluorescent increase is observed.
The PED6 assay was run as an […] 10 μL assay. Compounds source plate was prepared by making 1:3 (by volume) serial dilution of the compounds into pure DMSO on 384-well microplate. Then, 0.01 μL of compounds on compound source plate were transferred into 384 well Greiner 784076 (black) plates by ECHO liquid dispenser. 5 μL of recombinant human Lp-PLA2 enzyme (2 nM rhLp-PLA2 in assay buffer of 50 mM HEPES, pH7.4, 150 mM NaCl, 1 mM CHAPS) was added to each well of the plate with compounds. Plates were centrifuged for 10 sec at 500 rpm. After 30 minutes preincubation, […] substrate (4 μM PED6 [from 5 mM DMSO stock] in assay buffer of 50 mM HEPES, pH7.4, 150 mM NaCl, 1 mM CHAPS) was added to 384 well Greiner 784076 (black) plates. Plates were centrifuged for 10 sec at 500 rpm. Plate was covered to protect from light and incubated for 20 min at room temperature. Plates were read for fluorescence intensity at ex: 480/em: 540 using ViewLux microplate imager. PIC50 data, curve and QC analysis was conducted by using XL fit module in Excel.

Another assay has as its target T2, Lp-PLA2 from plasma (Homo sapiens, UniProt Q13093).
T2 construct: from tissue; host or cells: pooled human plasma
T2 sequence (Q13093 22-441): T1 sequence (Q13093 22-441)
Briefly: Lp-PLA2 human plasma assay (Thio-PAF assay). In kind it is biochemical. Conditions: pooled human plasma; read-out: pIC50 values in the thio-PAF assay (converted). From the text: (3) Lipoprotein-Associated Phospholipase A2 (Lp-PLA2) Human Plasma Assay (Also Referred to as “Thio-PAF Assay”)
The human plasma assay utilizes a thioester analog of PAF (phosphatidylcholine), where hydrolysis yields to the formation of a phospholipid containing a free thiol group. The amount of thiol is quantitated continuously by reacting with CPM (7-diethylamino-3-(4′-maleimidylphenyl)-4-methylcoumarin), a maleimide which increases in fluoresence after Michael addition of thiols. This assay may detect the activity of Lp-PLA2 from plasma, as determined by specific inhibition by Lp-PLA2 inhibitors.
The thio-PAF assay was run as a quenched 15 μL assay. Compounds source plate was prepared by making 1:3 (by volume) serial dilution of the compounds into pure DMSO on 384-well microplate. 0.01 μL of compounds on compound source plate were transferred to 384 well Greiner 784076 (black) low-volume plates by ECHO liquid dispenser. 8 μL pooled human plasma, which was previously aliquoted and frozen, was added. Plates were centrifuged for 10 sec at 500 rpm. After 30 minutes preincubation, 2 μL of substrate (2.5 mM thio-PAF, 3.2 mM NEM (N-ethylmaleimide) [made fresh daily in DMSO], and 32 μM CPM [from a DMSO stock] in assay buffer of 50 mM HEPES, pH7.4, 150 mM NaCl, 1 mM CHAPS was added to 384 well Greiner 784076 (black) low-volume plates by BRAVO liquid handling station. Plates were centrifuged for 10 sec at 500 rpm. Plate was covered to protect from light and incubated for 2 min at room temperature. Reaction was quenched with 5 μL of 5% aqueous trifluoroacetic acid (TFA). Plates were covered to protect from light and incubated for 40 min at room temperature. Plates were read at ex: 380/em: 485 using-Envision microplate reader. PIC50 data, curve and QC analysis was conducted by using XLFit module in Excel.

Where a name gives a salt, the structure may show the parent alone. Bounds are passed on as bounds.

For `O=c1nc(OCCc2ccc(Oc3ccc(Cl)c(C(F)(F)F)c3)cc2)ccn1Cc1cncnc1` [Example 11, 4-{[2-(4-{[4-Chloro-3-(trifluoromethyl)phenyl]oxy}phenyl)ethyl]oxy}-1-(5-pyrimidinylmethyl)-2(1H)-pyrimidinone], the IC50 in assay [1] is no more than 0.001 µM; on Lp-PLA2 from plasma, no more than 0.1 µM.

For the molecule `Cc1cn(Cc2cnn(C)c2)c(=O)nc1OCCc1ccc(Oc2ccc(F)c(F)c2)nc1` [Example 67, 4-(2-(6-(3,4-difluorophenoxy)pyridin-3-yl)ethoxy)-5-methyl-1-((1-methyl-1H-pyrazol-4-yl)methyl)pyrimidin-2(1H)-one], the values for the IC50 (in assay [1]; at Lp-PLA2 from plasma) were greater than 0.01 µM and no more than 1 µM, respectively.

For the molecule `Cc1cn(Cc2cnn(C)c2)c(=O)nc1OCc1ccc(Oc2cccc(C(F)(F)F)c2)c(C#N)c1` [Example 69, 5-(((5-methyl-1-((1-methyl-1H-pyrazol-4-yl)methyl)-2-oxo-1,2-dihydropyrimidin-4-yl)oxy)methyl)-2-(3-(trifluoromethyl)phenoxy)benzonitrile], the IC50 in assay [1] is no more than 0.001 µM; at Lp-PLA2 from plasma it was no more than 0.1 µM.

Regarding `O=c1nc(OCCc2ccc(Oc3ccc(Cl)c(C(F)(F)F)c3)cc2)ccn1Cc1ccncc1` [Example 9, 4-{[2-(4-{[4-Chloro-3-(trifluoromethyl)phenyl]oxy}phenyl)ethyl]oxy}-1-(4-pyridinylmethyl)-2(1H)-pyrimidinone], the values for the IC50 (in assay [1]; at Lp-PLA2 from plasma) were no more than 0.001 µM and no more than 0.1 µM, respectively.

On to `Cn1cc(Cn2cc(F)c(OCCc3ccc(Oc4ccc(F)c(F)c4)c(F)c3)nc2=O)cn1` [Example 59, 4-(4-(3,4-difluorophenoxy)-3-fluorophenethoxy)-5-fluoro-1-((1-methyl-1H-pyrazol-4-yl)methyl)pyrimidin-2(1H)-one, trifluoroacetic acid salt], for which the IC50 was no more than 0.001 µM in assay [1] and no more than 0.1 µM on Lp-PLA2 from plasma.

With `Cn1cc(Cn2ccc(OCc3cnc(Oc4ccc(Cl)c(C(F)(F)F)c4)c(F)c3)nc2=O)cn1` [Example 17, 4-{[(6-{[4-Chloro-3-(trifluoromethyl)phenyl]oxy}-5-fluoro-3-pyridinyl)methyl]oxy}-1-[(1-methyl-1H-pyrazol-4-yl)methyl]-2 (1H)-pyrimidinone], the results for the IC50 (in assay [1]; on Lp-PLA2 from plasma) were no more than 0.001 µM and no more than 0.1 µM, respectively.

As to `COc1ncc(Cn2cc(Cl)c(OCCc3ccc(Cc4ccc(Cl)c(C(F)(F)F)c4)cc3)nc2=O)cn1` [Example 45, 5-chloro-4-(4-(4-chloro-3-(trifluoromethyl)benzyl)phenethoxy)-1-((2-methoxypyrimidin-5-yl)methyl)pyrimidin-2(1H)-one], the values for the IC50 (in assay [1]; on Lp-PLA2 from plasma) were no more than 0.001 µM and no more than 0.1 µM, respectively.

On to `Cn1cc(Cn2cc(F)c(OCCc3ccc(Oc4ccc(C(F)(F)F)nc4)c(F)c3)nc2=O)cn1` [Example 41, 5-fluoro-4-(3-fluoro-4-((6-(trifluoromethyl)pyridin-3-yl)oxy)phenethoxy)-1-((1-methyl-1H-pyrazol-4-yl)methyl)pyrimidin-2(1H)-one], for which the IC50 is no more than 0.001 µM in assay [1] and no more than 0.1 µM on Lp-PLA2 from plasma.

On to `COc1ncc(Cn2cc(Cl)c(OCCc3cnc(Oc4ccc(Cl)c(C(F)(F)F)c4)c(F)c3)nc2=O)cn1` [Example 32, 5-chloro-4-(2-(6-(4-chloro-3-(trifluoromethyl)phenoxy)-5-fluoropyridin-3-yl)ethoxy)-1-((2-methoxypyrimidin-5-yl)methyl)pyrimidin-2(1H)-one], for which the IC50 was no more than 0.001 µM in assay [1] and no more than 0.1 µM on Lp-PLA2 from plasma.

Take `Cc1cn(Cc2cnn(C)c2)c(=O)nc1OCc1ccc(Oc2ccc(F)c(F)c2)c(C#N)c1` [Example 71, 2-(3,4-difluorophenoxy)-5-(((5-methyl-1-((1-methyl-1H-pyrazol-4-yl)methyl)-2-oxo-1,2-dihydropyrimidin-4-yl)oxy)methyl)benzonitrile]: the results for the IC50 (in assay [1]; on Lp-PLA2 from plasma) were no more than 0.001 µM and no more than 0.1 µM, respectively.

As for `CCn1ccc(OCc2ccc(Oc3ccc(Cl)c(C(F)(F)F)c3)cc2)cc1=O` [Example 23, 4-{[(4-{[4-Chloro-3-(trifluoromethyl)phenyl]oxy}phenyl)methyl]oxy}-1-ethyl-2(1H)-pyridinone], the IC50 was greater than 0.01 µM in assay [1] and greater than 10 µM on Lp-PLA2 from plasma.

With `N#Cc1cc(COc2ccn(Cc3cccnc3)c(=O)n2)ccc1Oc1ccc(Cl)c(C(F)(F)F)c1` [Example 4, 2-(4-Chloro-3-(trifluoromethyl)phenoxy)-5-(((2-oxo-1-(pyridin-3-ylmethyl)-1,2-dihydropyrimidin-4-yl)oxy)methyl)benzonitrile], the IC50 was no more than 0.001 µM in assay [1] and no more than 0.1 µM on Lp-PLA2 from plasma.

For `Cn1cc(Cn2ccc(OCCc3cnc(Oc4ccc(Cl)c(C(F)(F)F)c4)c(F)c3)nc2=O)cn1` [Example 18, 4-{[2-(6-{[4-Chloro-3-(trifluoromethyl)phenyl]oxy}-5-fluoro-3-pyridinyl)ethyl]oxy}-1-[(1-methyl-1H-pyrazol-4-yl)methyl]-2(1H)-pyrimidinone], the IC50 in assay [1] was no more than 0.001 µM; on Lp-PLA2 from plasma, no more than 0.1 µM.

On to `Cn1cc(Cn2ccc(OCCc3ccc(Oc4ccc(Cl)c(C(F)(F)F)c4)cc3)nc2=O)cn1` [Example 12, 4-{[2-(4-{[4-Chloro-3-(trifluoromethyl)phenyl]oxy}phenyl)ethyl]oxy}-1-[(1-methyl-1H-pyrazol-4-yl)methyl]-2(1H)-pyrimidinone], for which the IC50 in assay [1] was no more than 0.001 µM; on Lp-PLA2 from plasma, no more than 0.1 µM.

Take `COc1ncc(Cn2cc(C)c(OCCc3ccc(Oc4ccc(F)c(F)c4)nc3)nc2=O)cn1` [Example 70, 4-(2-(6-(3,4-difluorophenoxy)pyridin-3-yl)ethoxy)-1-((2-methoxypyrimidin-5-yl)methyl)-5-methylpyrimidin-2(1H)-one]: the IC50 in assay [1] is greater than 0.01 µM; at Lp-PLA2 from plasma, no more than 1 µM.

On to `Cc1cn(Cc2cnn(C)c2)c(=O)nc1OCCc1ccc(Oc2ccc(Cl)c(C(F)(F)F)c2)cc1` [Example 66, 4-(4-(4-chloro-3-(trifluoromethyl)phenoxy)phenethoxy)-5-methyl-1-((1-methyl-1H-pyrazol-4-yl)methyl)pyrimidin-2 (1H)-one], for which the IC50 in assay [1] was no more than 0.001 µM; at Lp-PLA2 from plasma, no more than 0.1 µM.

For `Cc1cn(Cc2cnn(C)c2)c(=O)nc1OCc1ccc(Oc2ccc(F)c(F)c2)c(F)c1` [Example 72, 4-((4-(3,4-difluorophenoxy)-3-fluorobenzyl)oxy)-5-methyl-1-((1-methyl-1H-pyrazol-4-yl)methyl)pyrimidin-2(1H)-one], the IC50 in assay [1] was no more than 0.001 µM; at Lp-PLA2 from plasma it was no more than 0.1 µM.

As for `Cn1cc(Cn2cc(F)c(OCCc3cnc(Oc4ccc(Cl)c(C(F)(F)F)c4)c(F)c3)nc2=O)cn1` [Example 33, 4-(2-(6-(4-chloro-3-(trifluoromethyl)phenoxy)-5-fluoropyridin-3-yl)ethoxy)-5-fluoro-1-((1-methyl-1H-pyrazol-4-yl)methyl)pyrimidin-2(1H)-one], the results for the IC50 (in assay [1]; on Lp-PLA2 from plasma) were no more than 0.001 µM and no more than 0.1 µM, respectively.

For the origin of these results see patent publication US8859573B2, “Pyrimidinone and pyridinone compounds for use in the treatment of diseases or conditions mediated by Lp-PLA2” (Glaxo Group Limited, priority 2010, dated 2014).
